In patent publication US6465440B2, “Antimutagenic compositions for treatment and prevention of photodamage to skin” (Wellstat Therapeutics Corporation, priority 1997, dated 2002):

Tests used:
[1] = tested on: human fibroblasts; test: Individual versus combined deoxyribonucleosides on photodynamically enhanced UV-induced DNA strand breaks; type: cell-based; settings: UV with 2 μM oxybenzone; individual compounds 20 μM, combination 20 μM each; UV + vehicle .325
Experimental: Confluent human fibroblasts were exposed to 2 micromolar oxybenzone (OB), as in Example 3, prior to exposure to UV-B radiation (50 J/m^2). Different flasks of cells also were exposed to increasing concentrations of deoxyribonucleosides. Cells were processed for determination of nucleoid position in a sucrose density gradient, a measure of DNA single strand breaks. […] Individual deoxyribonucleosides were tested at concentrations of 20 μM, and the combination of all four deoxyribonucleosides contained thymidine, deoxycytidine. deoxyadenosine and deoxyguanosine at 20 μM each.

[2] = tested on: v-Ha-ras TG.AC mice; test: Individual deoxyribonucleosides versus combination on UV-induced tumorigenesis in v-Ha-ras TG.AC mice; type: in vivo, mouse; settings: UV 1.25 kJ/m^2 on days 0, 6, 8 and 11; 4 mg/ml (each) in propylene glycol beginning 30 minutes after irradiation; vehicle 1.8
Experimental: Thirty v-Ha-ras TG.AC mice aged twelve weeks were shaved and subjected to ultraviolet radiation, 1.25 kJ/m^2 on days 0, 6, 8 and 11, at a dose rate of 12.5 W/m2. Mice were divided into groups of five animals each and treated, beginning 30 minutes after irradiation, with: 1. Vehicle (propylene glycol) 2.

[3] = tested on: human fibroblasts; test: Photodynamic enhancement of DNA damage by UV plus oxybenzone, attenuation by deoxyribonucleosides (nucleoid position); type: cell-based; settings: UV + 2 μM OB, no dNsides
Experimental: (§1) Confluent human fibroblasts in T25 flasks were washed 3 times with HBSS (Hank's Balanced Salt Solution) and incubated with vehicle or with various concentrations of oxybenzone (OB) for 2 hours. Media was aspirated and cells were covered with a 1 mm layer of HBSS and irradiated from above with UV-B (50 J/m^2). The medium was aspirated and cells were incubated for three hours with 2 mM hydroxyurea. Medium was again aspirated, and cells were trypsinized with 0.25% trypsin/EDTA. Cells were centrifuged at 4° C., resuspended in 50 microliters of HBSS and incubated at room temperature with 200 microliters of 1N NaOH for 15 minutes. DNA damage (single strand breaks) was assessed by alkaline sucrose gradient centrifugation. “Nucleoid position” in the sucrose gradient is proportional to the number of DNA single strand breaks.
Confluent human fibroblasts were exposed to 2 micromolar oxybenzone (OB), as in Example 3, prior to exposure to UV-B radiation (50 J/m^2). Different flasks of cells also were exposed to increasing concentrations of deoxyribonucleosides. Cells were processed for determination of nucleoid position in a sucrose density gradient, a measure of DNA single strand breaks.

[4] = tested on: human fibroblasts; test: UV-induced DNA single strand breaks (nucleoid position, alkaline sucrose gradient) with oxybenzone; type: cell-based
Experimental: as §1

[5] = tested on: Human melanocytes; test: Nitric oxide-induced DNA strand breaks with or without UV (pulsed field gel electrophoresis); type: cell-based
Experimental: Human melanocytes were exposed to 160 μM DETA NONOate (Alexis Corporation, Cat #430-014-M005), a reagent which spontaneously produces nitric oxide when exposed to water. Cells were exposed to NO alone, or NO plus increasing doses of UV radiation (50 and 300 J/m^2). Groups of cells were also exposed to deoxyribonucleosides of the invention before, or before and after, exposure to NO or NO+UV radiation; control groups were treated identically except for addition of deoxyribonucleosides.
DNA was extracted from cells and subjected to pulsed field gel electrophoresis to determine the incidence of DNA strand breaks.

Q: Which “DNA Strand Breaks” value [1] does the source give for `Cc1cn([C@H]2C[C@H](O)[C@@H](CO)O2)c(=O)[nH]c1=O` [thymidine, Thymidine] here?
A: Its value is “.13 Breaks/47 MDa”.

Q: And the “Papillomas/mouse at the end of 8 weeks” value [2]?
A: The value was 1.6 Papillomas/mouse.

Q: What does the source list for `Nc1ccn([C@H]2C[C@H](O)[C@@H](CO)O2)c(=O)n1` [deoxycytidine, Deoxycytidine]?
A: DNA Strand Breaks [1]: .12 Breaks/47 MDa; Papillomas/mouse at the end of 8 weeks [2]: 0.25 Papillomas/mouse

Q: Which “Nucleoid Position” value [3] does the source give for `COc1ccc(C(=O)c2ccccc2)c(O)c1` [OB, oxybenzone (benzophenone-3)] here?
A: The value was 56 mm.

Q: What about the “Nucleoid Position” value ([4]; UV 50 J/m^2 + 2 μM OB, 2 hours preincubation) of the same compound?
A: Its value is 32 mm.

Q: And the “Nucleoid Position” value ([4]; UV 50 J/m^2 + 20 μM OB)?
A: Its value is 4 mm.

Q: What about the “Nucleoid Position” value ([4]; UV 50 J/m^2 + 200 μM OB) of the same compound?
A: The value was 3 mm.

Q: And the “Nucleoid position relative to non-irradiated cells” value ([4]; UV 50 J/m^2 + 2 micromolar OB)?
A: Its value is 10 fold.

Q: What does the source list for `Nc1ncnc2c1ncn2[C@H]1C[C@H](O)[C@@H](CO)O1` [deoxyadenosine, Deoxyadenosine]?
A: DNA Strand Breaks [1]: .17 Breaks/47 MDa; Papillomas/mouse at the end of 8 weeks [2]: 0.67 Papillomas/mouse

Q: What does the source list for `Nc1nc2c(ncn2[C@H]2C[C@H](O)[C@@H](CO)O2)c(=O)[nH]1` [deoxyguanosine, Deoxyguanosine]?
A: DNA Strand Breaks [1]: .17 Breaks/47 MDa; Papillomas/mouse at the end of 8 weeks [2]: 1.0 Papillomas/mouse

Q: For `[N]=O` [NO, Nitric oxide], which “DNA Strand Breaks” value ([5]; NO + UV 50 J/m^2) is on record?
A: Its value is 0.21 breaks/105 MDa.

Q: And the “DNA Strand Breaks” value ([5]; NO + UV 300 J/m^2)?
A: Its value is 0.51 breaks/105 MDa.

Q: What about the “DNA Strand Breaks” value ([5]; NO alone (160 μM DETA NONOate)) of the same compound?
A: The value was 0.13 breaks/105 MDa.
